Assay [1] deals with Mus musculus. The experiment in a line: Neuroprotective activity in C57BL/6 mouse model of transient middle cerebral artery occlusion induced cerebral ischemia reperfusion injury assessed as change in infract volume at 10 mg/kg, ip measured after 24 hrs by TTC staining based assay (reference value: 21.86 +/- 4.65 %). The class given is functional.
The species named for assay [2] is Mus musculus. The assay can be described thus: Neuroprotective activity in C57BL/6 mouse model of transient middle cerebral artery occlusion induced cerebral ischemia reperfusion injury assessed as neuronal apoptosis by measuring increase in caspase-3 positive cells incubated for 1 hrs by immunohistochemistry. Format: functional, organism-based.
Assay [3] is filed under the species Mus musculus. The assay can be described thus: Neuroprotective activity in C57BL/6 mouse model of transient middle cerebral artery occlusion induced cerebral ischemia reperfusion injury assessed as neuronal apoptosis by measuring increase in TUNEL positive nuclei measured after 12 hrs by TUNEL staining based assay. Format: functional, organism-based.
Assay [4] can be described thus: Downregulation of AIF expression in cortex of C57BL/6 mouse model of transient middle cerebral artery occlusion induced cerebral ischemia reperfusion injury assessed as AIP-posotive cells in ischemic cortex at 10 mg/kg, ip measured after 24 hrs of reperfusion by immunohistochemistry (reference value: 46.7 +/- 3.45). The class given is functional.
In assay [5] the test system is Mus musculus. The experiment in a line: Neuroprotective activity in C57BL/6 mouse model of transient middle cerebral artery occlusion induced cerebral ischemia reperfusion injury assessed as inhibition of apoptosis by measuring decrease in TUNEL positive nuclei in cortex at 10 mg/kg, ip measured after 12 hrs by TUNEL staining based assay (reference value: 53.64 +/- 7.63). The class given is functional.

A short description of assay [6]: Downregulation of cyt-c expression in cortex of C57BL/6 mouse model of transient middle cerebral artery occlusion induced cerebral ischemia reperfusion injury at 10 mg/kg, ip measured after 24 hrs of reperfusion by immunohistochemistry (reference value: 15.58 +/- 2.34). The class given is functional.
The subject of assay [7] is Mus musculus. The experiment in a line: Neuroprotective activity in C57BL/6 mouse model of transient middle cerebral artery occlusion induced cerebral ischemia reperfusion injury assessed as neurological deficits at 10 mg/kg, ip measured 24 hrs after reperfusion by […] (reference value: 5.86 +/- 0.64). The class given is functional.
For assay [8], the system named is Mus musculus. The experiment in a line: Neuroprotective activity in C57BL/6 mouse model of transient middle cerebral artery occlusion induced cerebral ischemia reperfusion injury assessed reduction in infarct size at 10 mg/kg, ip measured after 24 hrs by TTC staining based assay. Format: functional, organism-based.
Assay [9] is described as follows: Downregulation of cyt-c expression in hippocampus of C57BL/6 mouse model of transient middle cerebral artery occlusion induced cerebral ischemia reperfusion injury at 10 mg/kg, ip measured after 24 hrs of reperfusion by immunohistochemistry (reference value: 20.52+/- 2.08). Format: functional.
Assay [10] can be described thus: Downregulation of cyt-c expression in cortex of C57BL/6 mouse model of transient middle cerebral artery occlusion induced cerebral ischemia reperfusion injury measured after 24 hrs of reperfusion by immunohistochemistry. Format: functional.
Assay [11] in a line: Downregulation of AIF expression […] of C57BL/6 mouse model of transient middle cerebral artery occlusion induced cerebral ischemia reperfusion injury assessed as AIP-posotive cells in hippocampus at 10 mg/kg, ip measured after 24 hrs of reperfusion by immunohistochemistry (reference value: 27.35 +/- 3.67). Format: functional.
The nature of assay [12]: Downregulation of cyt-c expression in hippocampus of C57BL/6 mouse model of transient middle cerebral artery occlusion induced cerebral ischemia reperfusion injury measured after 24 hrs of reperfusion by immunohistochemistry. The class given is functional.
For assay [13], the system named is Mus musculus. The experiment in a line: Neuroprotective activity in C57BL/6 mouse model of transient middle cerebral artery occlusion induced cerebral ischemia reperfusion injury assessed as inhibition of apoptosis by measuring decrease in caspase-3 positive cells in cortex at 10 mg/kg, ip incubated for 1 hrs by immunohistochemistry (reference value: 7.58 +/- 2.15). Format: functional.

Assay [14] has as its system Mus musculus. The experiment in a line: Neuroprotective activity in C57BL/6 mouse model of transient middle cerebral artery occlusion induced cerebral ischemia reperfusion injury assessed as inhibition of apoptosis by measuring decrease in TUNEL positive nuclei in hippocampus at 10 mg/kg, ip measured after 12 hrs by TUNEL staining based assay (reference value: 55.42 +/- 4.86). Format: functional.

SMILES strings stand for the structures. Activity calls are given as the source filed them. The calls are words filed in the database; no cut-off is given here.

For the compound `c1cc(-c2cnn3cc(-c4ccc(OCCN5CCCCC5)cc4)cnc23)ccn1` [DORSOMORPHIN], the Activity with Mus musculus [1] was 42.56%; with Mus musculus [5] it was 53.64; in the assay on Mus musculus [7], 9.26; in the assay with Mus musculus [13] it was 15.63; in the assay with Mus musculus [14], 55.42. Also, the outcome in the assay listed under Mus musculus [2], in the assay filed under Mus musculus [3] and in the assay with Mus musculus [8] was Active. Also, the “fold change (FC)” value is reported as 26.36 in assay [4]; 45.32 in assay [6]; 52.08 in [9]; 45.32 in [10]; 13.17 in assay [11]; 52.08 in assay [12].

The values are drawn from ChEMBL document CHEMBL5055680, “AMPK inhibitor BML-275 induces neuroprotection through decreasing cyt c and AIF expression after transient brain ischemia” (2021).
